Measured values from paper PMC7854658, “Structural basis for ligand recognition of the neuropeptide Y Y2 receptor” (Nature Communications, 2021).
Residue numbers refer to the chain shown, from its start. Values joined by “and” are separate entries in the source; they are usually repeats but may differ in a detail not shown here. Equal values may be shown once.

Columns and labels:
Assay in all cases: NPY-induced IP accumulation (IP-One), mutant
Format in all cases: cell-based
Y2R mutant L284^6.51A = target: T1, Y2R mutant L284^6.51A (Homo sapiens, UniProt P49146, L284A)
T1 construct: expressed in transfected cells; host or cells: HEK293
T1 sequence (P49146 1-381 L284A): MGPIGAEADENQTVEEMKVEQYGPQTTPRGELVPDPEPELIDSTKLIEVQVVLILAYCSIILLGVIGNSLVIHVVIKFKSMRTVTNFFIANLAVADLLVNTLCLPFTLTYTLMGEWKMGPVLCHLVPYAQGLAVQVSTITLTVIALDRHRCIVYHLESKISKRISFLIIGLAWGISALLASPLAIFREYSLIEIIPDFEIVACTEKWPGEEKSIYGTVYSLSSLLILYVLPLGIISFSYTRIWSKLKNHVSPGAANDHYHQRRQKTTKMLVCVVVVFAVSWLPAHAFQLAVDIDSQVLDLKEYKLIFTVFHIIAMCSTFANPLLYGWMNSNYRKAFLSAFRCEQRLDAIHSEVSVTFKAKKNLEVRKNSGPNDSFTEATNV
Protocol: (§1) The plasmid hY2R_eYFP_pVitro2 encoding the WT Y2R and a fluorophore for investigating the receptor localization was used as template for the generation of receptor point mutations as previously described. Mutagenesis PCR was performed using the Phusion High-Fidelity Polymerase (Thermo Fisher Scientific, Waltham, MA, USA). […] The preparations of the plasmid DNA were performed using the Wizard plus Mini or Midi DNA purification kit (Promega, Madison, WI, USA).
(§2) To determine the contribution of residues to antagonist binding, IP-One accumulation assays (Cisbio, Codolet, France) were performed. HEK293 cells were seeded into six-well plates and transiently cotransfected with 3200 ng of receptor plasmid DNA and 800 ng of the chimeric G protein (Gα∆6qi4myr) to redirect the Gαi signaling pathway to the Gαq phospholipase C pathway. Transient transfection was carried out using Metafectene as transfection reagent according to the manufacturer’s protocol (Biontex, Munich, Germany) over night. The cells were then reseeded into white 384-well microplates (Greiner Bio-One, Kremsmünster, Austria) at a density of 15,000 cells per well and grown for additional 24 h.
(§3) All dilutions were performed in HBSS containing 20 mM LiCl (stimulation buffer) and DMSO with a final concentration of 0.01%.
(§4) To determine the amount of cellular IPs, the FRET acceptor (IP1-d2) and the FRET donor (anti-IP1-Cryptate) were reconstituted and diluted in lysis and detection buffer (1:20) as described in the manufacturer’s protocol. Three microliters of both solutions were added, and the cells were incubated on a tumbler for 60 min.

Y2R mutant Y228^5.47A = target: T2, Y2R mutant Y228^5.47A (Homo sapiens, UniProt P49146, Y228A); conditions: 1 μM antagonist, source data Fig. 3
T2 construct: expressed in transfected cells; host or cells: HEK293
Protocol: as §1, §2, §3, §4

Y2R mutant T111^2.65A = target: T3, Y2R mutant T111^2.65A (Homo sapiens, UniProt P49146, T111A)
T3 construct: expressed in transfected cells; host or cells: HEK293
T3 sequence (P49146 1-381 T111A): T1 sequence (P49146 1-381 L284A) with T111A, A284L
Protocol: as §1, §2, §3, §4

Y2R mutant L227^5.46A = target: T4, Y2R mutant L227^5.46A (Homo sapiens, UniProt P49146, L227A)
T4 construct: expressed in transfected cells; host or cells: HEK293
T4 sequence (P49146 1-381 L227A): T1 sequence (P49146 1-381 L284A) with L227A, A284L
Protocol: as §1, §2, §3, §4

Y2R mutant H285^6.52T = target: T5, Y2R mutant H285^6.52T (Homo sapiens, UniProt P49146, H285T)
T5 construct: expressed in transfected cells; host or cells: HEK293
T5 sequence (P49146 1-381 H285T): T1 sequence (P49146 1-381 L284A) with A284L, H285T
Protocol: as §1, §2, §3, §4

Y2R mutant S223^5.42A = target: T6, Y2R mutant S223^5.42A (Homo sapiens, UniProt P49146, S223A); conditions: 1 μM antagonist, source data Fig. 3
T6 construct: expressed in transfected cells; host or cells: HEK293
Protocol: as §1, §2, §3, §4

Y2R mutant W116^ECL1A = target: T7, Y2R mutant W116^ECL1A (Homo sapiens, UniProt P49146, W116A); conditions: 1 μM antagonist, source data Fig. 3
T7 construct: expressed in transfected cells; host or cells: HEK293
Protocol: as §1, §2, §3, §4

Y2R mutant L224^5.43A = target: T8, Y2R mutant L224^5.43A (Homo sapiens, UniProt P49146, L224A); conditions: 1 μM antagonist, source data Fig. 3
T8 construct: expressed in transfected cells; host or cells: HEK293
Protocol: as §1, §2, §3, §4

[1] = 1 μM antagonist, source data Fig. 3
[2] = EC50(NPY + 1 μM antagonist)/EC50(NPY)
[3] = EC50 ratio (WT)/EC50 ratio (mutant)

T6 sequence (P49146 whole entry S223A): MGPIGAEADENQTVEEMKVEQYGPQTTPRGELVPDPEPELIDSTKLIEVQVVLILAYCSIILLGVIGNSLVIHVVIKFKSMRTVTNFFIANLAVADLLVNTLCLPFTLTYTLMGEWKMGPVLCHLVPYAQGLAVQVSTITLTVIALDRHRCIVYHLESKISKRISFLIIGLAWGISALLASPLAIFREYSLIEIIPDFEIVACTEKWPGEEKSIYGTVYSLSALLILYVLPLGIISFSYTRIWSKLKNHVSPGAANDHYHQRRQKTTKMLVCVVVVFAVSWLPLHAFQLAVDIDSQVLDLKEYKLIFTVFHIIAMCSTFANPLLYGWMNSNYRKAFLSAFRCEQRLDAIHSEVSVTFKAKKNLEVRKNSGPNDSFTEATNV
T2 sequence (P49146 whole entry Y228A): as the sequence (P49146 whole entry S223A) above, with A223S, Y228A counted along it
T7 sequence (P49146 whole entry W116A): as the sequence (P49146 whole entry S223A) above, with W116A, A223S counted along it
T8 sequence (P49146 whole entry L224A): as the sequence (P49146 whole entry S223A) above, with A223S, L224A counted along it

- Average EC50 ratio (Y2R mutant L284^6.51A; [1]): 108.6
- EC50 ratio (individual experiments) (Y2R mutant L284^6.51A; [1]): 88.8 and 128.4
- EC50 ratio (Y2R mutant L284^6.51A; [2]): 89 and 128
- Ratio change (fold) (Y2R mutant L284^6.51A; [3]): 1.8 fold and 1.2 fold
- Average EC50 ratio (Y2R mutant Y228^5.47A): 18.8
- EC50 ratio (individual experiments) (Y2R mutant Y228^5.47A): 10.5 and 27.0
- Average EC50 ratio (Y2R mutant T111^2.65A; [1]): 247.7
- EC50 ratio (individual experiments) (Y2R mutant T111^2.65A; [1]): 265.4 and 230.1
- EC50 ratio (Y2R mutant T111^2.65A; [2]): 265 and 230
- Ratio change (fold) (Y2R mutant T111^2.65A; [3]): 0.6 fold and 0.7 fold
- Average EC50 ratio (Y2R mutant L227^5.46A; [1]): 27.7
- EC50 ratio (individual experiments) (Y2R mutant L227^5.46A; [1]): 31.4 and 24.0
- EC50 ratio (Y2R mutant L227^5.46A; [2]): 31 and 24
- Ratio change (fold) (Y2R mutant L227^5.46A; [3]): 5 fold and 7 fold
- Average EC50 ratio (Y2R mutant H285^6.52T; [1]): 2.7
- EC50 ratio (individual experiments) (Y2R mutant H285^6.52T; [1]): 3.5 and 1.9
- Ratio change (fold) (Y2R mutant H285^6.52T; [3]): 45 fold and 84 fold
- Average EC50 ratio (Y2R mutant S223^5.42A): 168.7
- EC50 ratio (individual experiments) (Y2R mutant S223^5.42A): 275.8 and 61.6
- Average EC50 ratio (Y2R mutant W116^ECL1A): 38.2
- EC50 ratio (individual experiments) (Y2R mutant W116^ECL1A): 21.7 and 54.7
- Average EC50 ratio (Y2R mutant L224^5.43A): 738.6
- EC50 ratio (individual experiments) (Y2R mutant L224^5.43A): 1348.6 and 128.7
Structure (SMILES): N=C(N)NCCC[C@H](NC(=O)CC1(CC(=O)N2CCN(C3c4ccccc4NC(=O)c4ccccc43)CC2)CCCC1)C(=O)NCCn1c(=O)n(-c2ccccc2)n(-c2ccccc2)c1=O (some centres unmarked) [BIIE0246]
